Reference: patent US20220323594A1, “LIPIDATED CATIONIC PEPTIDE-PEG COMPOSITIONS FOR NUCLEIC ACID DELIVERY” (NUTCRACKER THERAPEUTICS, INC., priority 2019, published 2022)

How the values were obtained:
[1] = Dynamic light scattering (DLS) of mRNA/peptoid formulations: particle size and polydispersity; assay type: physicochemical; conditions: Fluc mRNA/peptoid formulation; for Size PDI: size polydispersity index by DLS, 5:1 mass ratio; for Size (nm): volume average particle size/diameter by DLS, 5:1 mass ratio peptoid:cargo
Method in brief: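 Volume-average particle diameter (nm) and PDI were measured by dynamic light scattering. Formulations combined peptoid diluted in ethanol with Fluc mRNA in pH 5.5 PBS at 1:3 by volume, mixed by pipetting at 5:1 peptoid:mRNA by mass.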

[2] = mRNA encapsulation by fluorescence of Qubit RNA HS dye before and after lysis with Triton X-100; assay type: physicochemical; conditions: percentage of mRNA encapsulation; Fluc mRNA/peptoid formulation, 5:1 mass ratio
Method in brief: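 Encapsulation was measured by comparing Qubit RNA HS fluorescence of intact particles with that after Triton X-100 lysis. Particles were amino-lipidated cationic peptoids complexed with firefly luciferase mRNA at 5:1 peptoid:cargo by mass, mixed by pipetting.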

[3] = tested on: HeLa cells; test: In vitro expression of firefly luciferase (Fluc) after treatment with Fluc mRNA/amino lipidated peptoid formulations, no PEG or 2% DMG-PEG2000; assay type: cell-based
Method in brief: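 HeLa cells received 100 ng/well Fluc mRNA complexed with amino lipidated peptoid at 5:1 peptoid:mRNA (w/w), either peptoid alone or with 2% w/w DMG-PEG2000. Expression quantified as RLU by luminescence at 6 and 24 h.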

[4] = tested on: HeLa cells; test: In vitro Fluc expression with variable peptoid:mRNA mass ratio, 2% DMG-PEG2000; assay type: cell-based; conditions: 24 h; for Observed Luciferase Expression (RLU) for Given Formulation Mass Ratio 2:1: 2% (w/w) DMG-PEG2000, peptoid:mRNA 2:1; for Observed Luciferase Expression (RLU) for Given Formulation Mass Ratio 3.5:1: 2% (w/w) DMG-PEG2000, peptoid:mRNA 3.5:1; for Observed Luciferase Expression (RLU) for Given Formulation Mass Ratio 5:1: 2% (w/w) DMG-PEG2000, peptoid:mRNA 5:1; for Observed Luciferase Expression (RLU) for Given Formulation Mass Ratio 7.5:1: 2% (w/w) DMG-PEG2000, peptoid:mRNA 7.5:1
Method in brief: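 HeLa cells exposed 24 hours to amino lipidated peptoid/Fluc mRNA formulations containing 2% w/w DMG-PEG2000 (relative to peptoid), across peptoid:mRNA mass ratios of 2:1 to 7.5:1. Read-out: average luciferase bioluminescence (RLU).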

[5] = MTT viability assay after treatment with Fluc mRNA/amino lipidated peptoid formulations; assay type: cell-based; conditions: human, HeLa cells
Method in brief: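 Viability relative to untreated cells came from the formazan read-out after 2 h with 1.5 mg/mL MTT and acidic isopropanol/Triton lysis. The MTT step followed an 8 h exposure to 100 ng/well Fluc mRNA in 5:1 peptoid:mRNA, 2% DMG-PEG2000 formulations and a further 48 h of culture.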

[6] = tested on: Balb/c mice; test: In vivo whole-body expression of Fluc following IV administration; conditions: Balb/c mice (n=3), IV tail-vein, 0.5 mg/kg, 5:1 peptoid:mRNA, 2% w/w DMG-PEG2000, 8 hours
Experimental: (§1) Amino lipidated peptoid delivery vehicles are effective for in vivo administration of Fluc mRNA to Balb/c mice (n=3) through multiple routes of administration. Briefly, representative amino lipidated peptoid/Fluc formulations (prepared at a 5:1 mass ratio of amino lipidated peptoid:mRNA unless noted, with 2% w/w DMG-PEG2000) were administered at a dose of 0.5 mg/kg via a tail-vein injection, and the resulting bioluminescence was quantified after 8 hours.

[7] = tested on: Balb/c mice; test: In vivo organ-specific bioluminescence (biodistribution of Fluc) following IV administration
Experimental: as §1, with “hours. […] Organ-specific bioluminescence was quantified by sacrificing the treated animal, dissecting out the organs of interest, and separately quantifying the resulting bioluminescence. […] FIG. 7C depicts a bar chart quantifying the organ-specific biodistribution of the formulations as a function of total photon flux.” for “hours.”

[8] = no PEG, peptoid:Fluc mRNA 5:1 w/w, 100 ng/well, 6 h of treatment
[9] = no PEG, peptoid:Fluc mRNA 5:1 w/w, 100 ng/well, 24 h of treatment
[10] = with 2% (w/w) DMG-PEG2000, peptoid:mRNA 5:1, 6 h after treatment
[11] = with 2% (w/w) DMG-PEG2000, peptoid:mRNA 5:1, 24 h after treatment

SMILES	Size PDI [1]	Size (nm) [1]	% Encapsulation [2]	Luciferase Expression (RLU) 6 h [3, 8]	Luciferase Expression (RLU) 24 h [3, 9]	Luciferase Expression (RLU) 6 h [3, 10]	Luciferase Expression (RLU) 24 h [3, 11]	Observed Luciferase Expression (RLU) for Given Formulation Mass Ratio 2:1 [4]	Observed Luciferase Expression (RLU) for Given Formulation Mass Ratio 3.5:1 [4]	Observed Luciferase Expression (RLU) for Given Formulation Mass Ratio 5:1 [4]	Observed Luciferase Expression (RLU) for Given Formulation Mass Ratio 7.5:1 [4]	viability at 8 h, 500 ng/well ([5]; Relative Viability (%) 2% PEG)	Total Flux (photons/sec), whole body [6]	Total Flux (p/s) Liver ([7]; dissected liver)	Total Flux (p/s) Lung ([7]; dissected lung)	Total Flux (p/s) Spleen ([7]; dissected spleen)	viability at 8 h, 500 ng/well ([5]; Relative Viability (%) No PEG)
CCCCCCCCCCN(CC(N)=O)C(=O)CN(CCCCCCCCCC)C(=O)CN(CCN)C(=O)CN(CCN)C(=O)CNCCN [Compound 14]	0.233	554 nm	77.3%	3.20E+01 RLU	1.43E+01 RLU	4.67E+00 RLU	9.00E+00 RLU	8.31E+01 RLU	1.42E+02 RLU	4.29E+01 RLU	2.82E+01 RLU	91%	4.58E+05 photons/sec	4.47E+04 p/s	4.17E+04 p/s	4.89E+04 p/s	–
CCCCCCCCCCNCC(=O)N(CCN)CC(=O)N(CCc1ccccc1)CC(=O)N(CCc1ccccc1)CC(=O)N(CCN)CC(=O)N(CCc1ccccc1)CC(=O)N(CCc1ccccc1)CC(=O)N(CCN)CC(=O)N(CCc1ccccc1)CC(=O)N(CCc1ccccc1)CC(=O)N(CCCCCCCCCC)CC(N)=O [Compound 18]	0.762	593 nm	88.5%	5.74E+02 RLU	8.49E+02 RLU	8.50E+01 RLU	1.22E+02 RLU	1.53E+03 RLU	3.00E+03 RLU	9.99E+02 RLU	2.41E+01 RLU	89.3%	–	–	–	–	86.1%
CCCCCCCCCCN(CC(N)=O)C(=O)CN(CCCCCCCCCC)C(=O)CN(CCCCCCCCCC)C(=O)CN(CCCCCCCCCC)C(=O)CN(CCc1ccccc1)C(=O)CN(CCc1ccccc1)C(=O)CN(CC1CCNCC1)C(=O)CN(CCc1ccccc1)C(=O)CN(CCc1ccccc1)C(=O)CN(CC1CCNCC1)C(=O)CN(CCc1ccccc1)C(=O)CN(CCc1ccccc1)C(=O)CNCC1CCNCC1 [Compound 31]	0.404	348.5 nm	35.7%	5.84E+02 RLU	2.93E+03 RLU	4.30E+02 RLU	2.63E+02 RLU	2.07E+02 RLU	5.70E+02 RLU	3.77E+03 RLU	2.05E+03 RLU	98.4%	–	–	–	–	83.8%
